Measured values reported in the NIST ThermoML archive (doi:10.1016/j.fluid.2015.10.047).

Tests used:
[1] = molar heat capacity at constant pressure; conditions: 101.33 kPa, Large sample (1 g) DSC
[2] = Crystal; DTA
[3] = Molar enthalpy of transition or fusion; conditions: Crystal; DSC

CO[C@H]1O[C@H](CO)[C@@H](O)[C@H](O)[C@H]1O [methyl-α-D-glucopyranoside]
[1]
Conditions	molar heat capacity at constant pressure [J/K/mol]
298.15 K, Crystal	291.48
303.15 K, Crystal	294.68
308.15 K, Crystal	297.16
313.15 K, Crystal	300.15
318.15 K, Crystal	302.5
323.15 K, Crystal	305.37
328.15 K, Crystal	308.34
333.15 K, Crystal	311.81
338.15 K, Crystal	315.04
343.13 K, Crystal	317.77
348.15 K, Crystal	320.54
353.15 K, Crystal	323.46
358.15 K, Crystal	327.84
363.15 K, Crystal	331.47
368.15 K, Crystal	334
373.15 K, Crystal	336.83
378.15 K, Crystal	339.69
383.15 K, Crystal	342.52
388.15 K, Crystal	345.56
393.15 K, Crystal	348.77
398.15 K, Crystal	352.33
403.15 K, Crystal	356.35
408.15 K, Crystal	360.93
413.15 K, Crystal	366.26
418.15 K, Crystal	369.54
423.15 K, Crystal	372.62
428.15 K, Crystal	376.07
433.15 K, Crystal	379.37
453.15 K, Liquid	510.58
458.15 K, Liquid	511.8
463.15 K, Liquid	513
468.15 K, Liquid	514.17
473.15 K, Liquid	515.44
478.15 K, Liquid	516.62
483.15 K, Liquid	517.93
488.15 K, Liquid	519.22
493.15 K, Liquid	520.14
498.15 K, Liquid	521.17
503.15 K, Liquid	522.4
508.15 K, Liquid	523.64
513.15 K, Liquid	524.87

Conditions	Molar enthalpy of transition or fusion [kcal/mol]	Normal melting temperature [°C]
[2]	–	169.18
[3]	6.7	–
